Results: patent publication US10287267B2, “Isoquinolin-3-yl carboxamides and preparation and use thereof” (Samumed, LLC, priority 2016, dated 2019)
Where two headings read alike, the source gives them in different places. One block for each molecule: values may come before it.

Experiments:
[1] = tested on: Wnt pathway (Sp5-Luc reporter, TCF/LEF binding sites) in SW480 colon carcinoma cells; experiment: Screening assay for Wnt activity: Sp5-Luc reporter gene assay; assay type: cell-based, human; conditions: Homo sapiens; for EC50: Sp5-Luc reporter, SW480 cells, 36 to 48 hours; for inhibition at 10 µM: SW480, read-out: percent inhibition at 10 μM;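 on all read-outs here: firefly luciferase luminescence read in stably transduced SW480 cells carrying the Sp5 promoter reporter with eight TCF/LEF sites, compounds given in 0.1% DMSO final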
Method: The screening assay for Wnt activity is described as follows.
Following incubation, 15 μl of BriteLite Plus luminescence reagent (Perkin Elmer) was added to each well of the 384-well assay plates. The plates were placed on an orbital shaker for 2 min and then luminescence was quantified using the Envision (Perkin Elmer) plate reader.

[2] = biological target: recombinant DYRK1A kinase (Homo sapiens (Human), UniProt Q13627); experiment: DYRK1A kinase assay (Ser/Thr 18 peptide Z-lyte FRET); assay type: biochemical; conditions: 30 μM ATP, 1 h room temperature;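 further: Read-out is the coumarin to fluorescein emission ratio, referenced to unphosphorylated (0%) and phosphorylated (100%) Ser/Thr 18 peptide controls, values from dose-response curves by non-linear regression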
recombinant GSK3β kinase = recombinant GSK3β kinase (Homo sapiens (Human), UniProt P49841); experiment: GSK3β kinase assay (Ser/Thr 09 peptide Z-lyte FRET); assay type: biochemical; conditions: 46 μM ATP, 1 h room temperature;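 further: kinase activity read as coumarin to fluorescein emission ratio, 11-point threefold dilutions from 10 µM to 0.0003 µM in duplicate, unphosphorylated and phosphorylated peptide as 0% and 100% controls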
Sequence of recombinant GSK3β kinase (P49841 whole entry): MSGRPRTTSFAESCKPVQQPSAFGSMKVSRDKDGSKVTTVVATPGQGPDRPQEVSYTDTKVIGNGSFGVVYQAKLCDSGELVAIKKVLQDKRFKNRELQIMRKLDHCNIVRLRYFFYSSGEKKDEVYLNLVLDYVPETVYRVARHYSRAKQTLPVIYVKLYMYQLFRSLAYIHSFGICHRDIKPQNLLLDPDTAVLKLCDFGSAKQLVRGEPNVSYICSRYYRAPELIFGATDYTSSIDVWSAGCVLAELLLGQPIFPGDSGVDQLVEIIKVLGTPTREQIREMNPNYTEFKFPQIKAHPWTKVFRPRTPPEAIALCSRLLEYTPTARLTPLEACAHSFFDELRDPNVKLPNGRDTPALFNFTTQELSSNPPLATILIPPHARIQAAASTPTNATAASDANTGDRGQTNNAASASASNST

[3] = tested on: Tau phosphorylation at Ser396 (pSer396); experiment: Tau phosphorylation assay (pSer396 ELISA / western blot) in SH-SY5Y cells; assay type: cell-based, human; conditions: Homo sapiens, read-out: pSer396 Tau EC50;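 further: EC50 for reduction of Tau pSer396 in lysed cells, measured by colorimetric ELISA or chemiluminescent western blot, both using the same pSer396 antibody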
Method: Two days before treatment, cells were seeded onto 96 well plates at 5×10^4 cells/well.
Wells were visually checked for cell death or change in morphology and supernatants were tested for cytotoxicity by measurement of lactate dehydrogenase release (LDH, CytoToxOne kit, Promega) if necessary.
Cells were lysed with RIPA buffer complemented with phosphatase and protease inhibitors then lysates were spun down at 12,000 g for 10 min to remove any cellular debris. Lysates are then either directly tested for pSer396 by ELISA (Life Technology, Kit KHB7031) or loaded on NuPage Bis-Tris gels for western blot analysis. Colorimetric detection of ELISA signal is performed by Cytation3 plate reader (Biotek) and the chemiluminescence signal for HRP-linked antibodies used in western blotting is detected using a Carestream Image Station. The same pSer396 antibody is used for detection of pTau in both assays.

[4] = tested on: SW480 colon carcinoma cells; experiment: Cell viability assay (CellTiter-Glo); assay type: cell-based, human; conditions: Homo sapiens; for EC50: 96 h, SW480 cells, CellTiter-Glo, four days incubation; for inhibition at 10 µM: SW480, read-out: percent inhibition at 10 μM
[5] = tested on: α-smooth muscle actin (αSMA) positive LL29 cells; experiment: Inhibition of fibrotic process: αSMA in TGF-β1 treated primary human fibroblasts from IPF patients; assay type: cell-based; conditions: Homo sapiens, Fibroblast; for EC50: 96 h, Table 8, LL29 fibroblasts from IPF patients, TGF-β1 20 ng/mL, 4 days, dose-response 10 μM to 0.94 nM; for inhibition at 10 µM: read-out: percent value in parentheses beside EC50 >10 μM;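 on all read-outs here: controls were TGF-β1 stimulated wells with DMSO vehicle (positive) and cells given DMSO alone (negative), cultured in F12 medium with 1% fetal bovine serum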
IL-6 = IL-6 inhibition in LPS-stimulated human peripheral blood mononuclear cells (HTRF); assay type: cell-based; conditions: Homo sapiens, PBMC; for inhibition at 10 µM: read-out: percent value in parentheses beside EC50 >10 μM; for EC50: Table 9, huPBMCs, LPS 50 ng/mL, 22 hours, dose-response starting from 10 μM;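 on all read-outs here: IL-6 detected by HTRF with an XL665- and Cryptate-labelled anti-IL-6 antibody pair, samples run in duplicate, EC50 obtained from a four-parameter Levenberg-Marquardt curve fit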
Method: After 22 hour incubation, a mixture of anti-IL6 XL665 and anti-IL-6 Cryptate diluted in reconstitution buffer (Catalog #62IL6PEC, Cisbio Inc., Bedford, Mass.) was added to each well. […] All samples were processed in duplicate. […] EC50 was determined using software generated by Dotmatics Limited (Windhill Bishops Stortford Herts, UK) using the Levenberg-Marquardt 4 parameter fitting procedure with finite different gradients.

[6] = SH-SY5Y cells, overnight (16-18 h) exposure

Compound: O=C(Nc1cc2cc(-c3cnc4n3CCNC4)ccc2cn1)C1CC(F)(F)C1 [Compound 986, 3,3-Difluoro-N-(6-(5,6,7,8-tetrahydroimidazo[1,2-a]pyrazin-3-yl)isoquinolin-3-yl)cyclobutane-1-carboxamide]
EC50 [1]: 1.38 µM
EC50 [2]: 0.011 µM
EC50 (recombinant GSK3β kinase): 0.021 µM
EC50 [3, 6]: 0.387 µM
EC50 [4]: 3.31 µM
EC50 [5]: 0.158 µM
inhibition at 10 µM (IL-6): 13.4%
EC50 (IL-6): > 10 µM

EC50 [1]: > 10 µM
EC50 [2]: 0.0428 µM
EC50 (recombinant GSK3β kinase): 2.32 µM
EC50 [3, 6]: > 10 µM
EC50 [4]: > 10 µM
EC50 (IL-6): > 10 µM
Compound: O=C(Nc1cc2cc(-c3cnc4n3CCNC4)ccc2cn1)[C@H]1CCCN1 [Compound 987, (R)—N-(6-(5,6,7,8-Tetrahydroimidazo[1,2-a]pyrazin-3-yl)isoquinolin-3-yl) pyrrolidine-2-carboxamide]
inhibition at 10 µM [1]: 10.7%
inhibition at 10 µM [4]: 10.6%
EC50 [5]: > 10 µM
inhibition at 10 µM [5]: 42%
inhibition at 10 µM (IL-6): 6.5%

EC50 [1]: > 10 µM
EC50 [2]: 0.0249 µM
EC50 (recombinant GSK3β kinase): 1.09 µM
EC50 [3, 6]: > 10 µM
EC50 [4]: > 10 µM
EC50 (IL-6): > 10 µM
Compound: O=C(Nc1cc2cc(-c3cnc4n3CCNC4)ccc2cn1)[C@@H]1CCCNC1 [Compound 988, (R)—N-(6-(5,6,7,8-Tetrahydroimidazo[1,2-a]pyrazin-3-yl)isoquinolin-3-yl) piperidine-3-carboxamide]
inhibition at 10 µM [1]: 11.1%
inhibition at 10 µM [4]: 18%
EC50 [5]: > 10 µM
inhibition at 10 µM [5]: 46.5%
inhibition at 10 µM (IL-6): 8.8%

Compound: CN1CCC(C(=O)Nc2cc3cc(-c4cnc5n4CCNC5)ccc3cn2)CC1 [Compound 989, 1-Methyl-N-(6-(5,6,7,8-tetrahydroimidazo[1,2-a]pyrazin-3-yl)isoquinolin-3-yl)piperidine-4-carboxamide]
EC50 [1]: 4.32 µM
EC50 [2]: 0.0162 µM
EC50 (recombinant GSK3β kinase): 0.298 µM
EC50 [3, 6]: > 10 µM
EC50 [4]: > 10 µM
inhibition at 10 µM [4]: 36.4%
EC50 [5]: 4.42 µM
inhibition at 10 µM (IL-6): 12.5%
EC50 (IL-6): > 10 µM

Compound: O=C(Nc1cc2cc(-c3cnc4n3CCNC4)ccc2cn1)C1CCN(CC2(C(F)(F)F)CC2)CC1 [Compound 990, N-(6-(5,6,7,8-Tetrahydroimidazo[1,2-a]pyrazin-3-yl)isoquinolin-3-yl)-1-((1-(trifluoromethyl)cyclopropyl)methyl)piperidine-4-carboxamide]
EC50 [1]: 2.87 µM
EC50 [2]: 0.0213 µM
EC50 (recombinant GSK3β kinase): 0.1 µM
EC50 [3, 6]: 1.8 µM
EC50 [4]: 3.55 µM
EC50 [5]: 0.782 µM
inhibition at 10 µM (IL-6): 0%
EC50 (IL-6): > 10 µM

Compound: O=C(Nc1cc2cc(-c3cnc4n3CCNC4)ccc2cn1)C1CCN(C(=O)c2ccccc2)CC1 [Compound 991, 1-Benzoyl-N-(6-(5,6,7,8-tetrahydroimidazo[1,2-a]pyrazin-3-yl)isoquinolin-3-yl)piperidine-4-carboxamide]
EC50 [1]: 1.71 µM
EC50 [2]: 0.0033 µM
EC50 (recombinant GSK3β kinase): 0.029 µM
EC50 [3, 6]: 10 µM
EC50 [4]: 3.96 µM
EC50 [5]: 2.68 µM
EC50 (IL-6): 3.24 µM

Compound: Cn1ncc(-c2ccc3cnc(NC(=O)C4CC5(C4)CN(C(=O)OC(C)(C)C)C5)cc3c2)c1CN1CCCCC1 [Compound 992, tert-Butyl 6-((6-(1-methyl-5-(piperidin-1-ylmethyl)-1H-pyrazol-4-yl)isoquinolin-3-yl)carbamoyl)-2-azaspiro[3.3]heptane-2-carboxylate]
EC50 [1]: 3.21 µM
EC50 [2]: 0.0253 µM
EC50 (recombinant GSK3β kinase): 0.014 µM
EC50 [3, 6]: 0.35 µM
EC50 [4]: 5.6 µM
EC50 [5]: 2.97 µM
inhibition at 10 µM (IL-6): 2.6%
EC50 (IL-6): > 10 µM

Compound: Cc1ncc(-c2ccc3cnc(NC(=O)CN4CCCC4)cc3c2)s1 [Compound 993, N-(6-(2-Methylthiazol-5-yl)isoquinolin-3-yl)-2-(pyrrolidin-1-yl)acetamide]
EC50 [1]: 7.97 µM
EC50 [2]: 0.0147 µM
EC50 (recombinant GSK3β kinase): 0.087 µM
EC50 [3, 6]: 0.702 µM
EC50 [4]: 6.58 µM
EC50 [5]: 1.49 µM
EC50 (IL-6): 8.84 µM

Compound: Cc1ncc(-c2ccc3cnc(NC(=O)CN4CCOCC4)cc3c2)s1 [Compound 994, N-(6-(2-Methylthiazol-5-yl)isoquinolin-3-yl)-2-morpholinoacetamide]
EC50 [1]: 7.9 µM
EC50 [2]: 0.0129 µM
EC50 (recombinant GSK3β kinase): 0.11 µM
EC50 [3, 6]: 1.9 µM
EC50 [4]: > 10 µM
inhibition at 10 µM [4]: 36.8%
EC50 [5]: 0.567 µM
inhibition at 10 µM (IL-6): 31.8%
EC50 (IL-6): > 10 µM

EC50 [1]: > 10 µM
EC50 [2]: 0.0133 µM
EC50 (recombinant GSK3β kinase): 0.177 µM
EC50 [3, 6]: 2.4 µM
EC50 [4]: > 10 µM
EC50 (IL-6): 8.93 µM
Compound: Cc1ncc(-c2ccc3cnc(NC(=O)CN4CCN(C)CC4)cc3c2)s1 [Compound 995, 2-(4-Methylpiperazin-1-yl)-N-(6-(2-methylthiazol-5-yl)isoquinolin-3-yl) acetamide]
inhibition at 10 µM [1]: 43.8%
inhibition at 10 µM [4]: 47.6%
EC50 [5]: 1.25 µM

Compound: Cc1ncc(-c2ccc3cnc(NC(=O)CN4C[C@H]5C[C@@H]4CO5)cc3c2)s1 [Compound 996, 2-((1R,4R)-2-Oxa-5-azabicyclo[2.2.1]heptan-5-yl)-N-(6-(2-methylthiazol-5-yl)isoquinolin-3-yl)acetamide]
EC50 [1]: 4.39 µM
EC50 [2]: 0.0134 µM
EC50 (recombinant GSK3β kinase): 0.141 µM
EC50 [3, 6]: 3.1 µM
EC50 [4]: > 10 µM
inhibition at 10 µM [4]: 32.2%
EC50 [5]: 1.2 µM
inhibition at 10 µM (IL-6): 10.6%
EC50 (IL-6): > 10 µM

Compound: O=C(Nc1cc2cc(-c3cnn4c3CNCC4)ccc2cn1)C1CCN(CC2(C(F)(F)F)CC2)CC1 [Compound 997, N-(6-(4,5,6,7-Tetrahydropyrazolo[1,5-a]pyrazin-3-yl)isoquinolin-3-yl)-1-((1-(trifluoromethyl)cyclopropyl)methyl)piperidine-4-carboxamide]
EC50 [1]: 3.89 µM
EC50 [2]: 0.186 µM
EC50 (recombinant GSK3β kinase): 0.033 µM
EC50 [3, 6]: 1.3 µM
EC50 [4]: 5.06 µM
EC50 [5]: 0.567 µM
inhibition at 10 µM (IL-6): 28.6%
EC50 (IL-6): > 10 µM

Compound: O=C(Nc1cc2cc(-c3cnn4c3CN(CCF)CC4)ccc2cn1)C1CCN(CC2(C(F)(F)F)CC2)CC1 [Compound 998, N-(6-(5-(2-Fluoroethyl)-4,5,6,7-tetrahydropyrazolo[1,5-a]pyrazin-3-yl)isoquinolin-3-yl)-1-((1-(trifluoromethyl)cyclopropyl)methyl)piperidine-4-carboxamide]
EC50 [1]: 2.25 µM
EC50 [2]: 0.0062 µM
EC50 (recombinant GSK3β kinase): 0.102 µM
EC50 [3, 6]: 0.638 µM
EC50 [4]: 4.75 µM
EC50 [5]: 0.26 µM
EC50 (IL-6): 7.08 µM

Compound: O=C(CN1CCCC1)Nc1cc2cc(-c3cnn4c3CN(CCF)CC4)ccc2cn1 [Compound 999, N-(6-(5-(2-Fluoroethyl)-4,5,6,7-tetrahydropyrazolo[1,5-a]pyrazin-3-yl)isoquinolin-3-yl)-2-(pyrrolidin-1-yl)acetamide]
EC50 [1]: 3.1 µM
EC50 [2]: 0.0209 µM
EC50 (recombinant GSK3β kinase): 0.086 µM
EC50 [3, 6]: 0.659 µM
EC50 [4]: 7.51 µM
EC50 [5]: 0.779 µM
inhibition at 10 µM (IL-6): 30.3%
EC50 (IL-6): > 10 µM

Compound: O=C(CN1C2CCC1CC2)Nc1cc2cc(-c3cnn4c3CN(CCF)CC4)ccc2cn1 [Compound 1000, 2-(7-Azabicyclo[2.2.1]heptan-7-yl)-N-(6-(5-(2-fluoroethyl)-4,5,6,7-tetrahydropyrazolo[1,5-a]pyrazin-3-yl)isoquinolin-3-yl)acetamide]
EC50 [1]: 4.32 µM
EC50 [2]: 0.0111 µM
EC50 (recombinant GSK3β kinase): 0.27 µM
EC50 ([3]; SH-SY5Y): 1.5 µM
EC50 [4]: 7.29 µM
EC50 [5]: 2.96 µM
EC50 (IL-6): 8.72 µM

EC50 [1]: 0.593 µM
EC50 [2]: 0.0073 µM
EC50 (recombinant GSK3β kinase): 0.009 µM
EC50 [3, 6]: 3.3 µM
EC50 [4]: 0.677 µM
EC50 (IL-6): > 10 µM
Compound: CO[C@H]1CC[C@@H](C(=O)Nc2cc3cc(-c4nnc(C)s4)ccc3cn2)CC1 [Compound 1001, cis-4-Methoxy-N-(6-(5-methyl-1,3,4-thiadiazol-2-yl)isoquinolin-3-yl) cyclohexane-1-carboxamide]
EC50 [5]: 0.065 µM

Compound: CC(C)CN1CCC[C@@H](C(=O)Nc2cc3cc(-c4cnn5c4CN(CCF)CC5)ccc3cn2)C1 [Compound 1002, (R)—N-(6-(5-(2-Fluoroethyl)-4,5,6,7-tetrahydropyrazolo[1,5-a]pyrazin-3-yl)isoquinolin-3-yl)-1-isobutylpiperidine-3-carboxamide]
EC50 [1]: 1.92 µM
EC50 [2]: 0.0285 µM
EC50 (recombinant GSK3β kinase): 0.425 µM
EC50 [3, 6]: 1.9 µM
EC50 [4]: > 10 µM
inhibition at 10 µM [4]: 37.6%
EC50 [5]: > 10 µM
inhibition at 10 µM [5]: 27.5%
inhibition at 10 µM (IL-6): 5.9%
EC50 (IL-6): > 10 µM

Compound: Cn1cc(-c2ccc3cnc(NC(=O)C4CCN(Cc5ncccn5)CC4)cc3c2)cn1 [Compound 1003, N-(6-(1-Methyl-1H-pyrazol-4-yl)isoquinolin-3-yl)-1-(pyrimidin-2-ylmethyl)piperidine-4-carboxamide]
EC50 [1]: 1.31 µM
EC50 [2]: 0.0021 µM
EC50 (recombinant GSK3β kinase): 0.043 µM
EC50 [3, 6]: 0.732 µM
EC50 [4]: 0.804 µM
EC50 [5]: 0.049 µM
EC50 (IL-6): 1.15 µM
